Results from publication PMC8398451, “Molecular Engineering of Curcumin, an Active Constituent of Curcuma longa L. (Turmeric) of the Family Zingiberaceae with Improved Antiproliferative Activity” (Plants, 2021).
Like-named read-outs stand apart in the source and are kept apart here.

Experiments:
RPMI-8226 = test: NCI antiproliferative SRB assay, Leukemia panel; type: cell-based, Human
A549/ATCC = test: NCI antiproliferative SRB assay, Non-Small Cell Lung Cancer panel; type: cell-based, Human
EKVX = test: as above; type: cell-based, Human
NCI-H322M = test: as above; type: cell-based, Human
NCI-H460 = test: as above; type: cell-based, Human
NCI-H522 = test: as above; type: cell-based, Human
HCC-2998 = test: NCI antiproliferative SRB assay, Colon Cancer panel; type: cell-based, Human
KM12 = test: as above; type: cell-based, Human
SF-295 = test: NCI antiproliferative SRB assay, CNS Cancer panel; type: cell-based, Human
SNB-19 = test: NCI antiproliferative SRB assay, CNS Cancer panel; type: cell-based, Human
U251 = test: NCI antiproliferative SRB assay, CNS Cancer panel; type: cell-based; settings: U251
LOX IMVI = test: NCI antiproliferative SRB assay, Melanoma panel; type: cell-based, Human
M14 = test: NCI antiproliferative SRB assay, Melanoma panel; type: cell-based, Human
MDA-MB-435 = test: NCI antiproliferative SRB assay, Melanoma panel; type: cell-based
SK-MEL-2 = test: NCI antiproliferative SRB assay, Melanoma panel; type: cell-based, Human
SK-MEL-28 = test: NCI antiproliferative SRB assay, Melanoma panel; type: cell-based, Human
UACC-257 = test: NCI antiproliferative SRB assay, Melanoma panel; type: cell-based, Human
UACC-62 = test: NCI antiproliferative SRB assay, Melanoma panel; type: cell-based, Human
OVCAR-8 = test: NCI antiproliferative SRB assay, Ovarian Cancer panel; type: cell-based, Human
NCI/ADR-RES = test: as above; type: cell-based, Human
786–0 = test: NCI antiproliferative SRB assay, Renal Cancer panel; type: cell-based, Human
A498 = test: as above; type: cell-based, Human
CAKI-1 = test: as above; type: cell-based, Human
RXF 393 = test: as above; type: cell-based, Human
DU-145 = test: NCI antiproliferative SRB assay, Prostate Cancer panel; type: cell-based, Human
MDA-MB-231 = test: NCI antiproliferative SRB assay, Breast Cancer panel; type: cell-based
HS 578T = test: as above; type: cell-based, Human
BT-549 = test: as above; type: cell-based, Human
Leukemia cell line panel = test: NCI antiproliferative assay, panel summary; type: cell-based, Human; settings: for GI50: Homo sapiens
[1] = system: Breast Cancer cell line panel; test: NCI antiproliferative assay, panel summary; type: cell-based, Human
[2] = Homo sapiens, 5-dose 0.01-100 µM
[3] = Homo sapiens, 5-dose 0.01-100 µM, read-out: LC50 (the source's name)

SMILES: COc1cc(/C=C/c2cc(/C=C/c3ccc(O)c(OC)c3)n(C(=O)Nc3ccc(C(F)(F)F)cc3)n2)ccc1O [3c]
- TGI (RPMI-8226; 5-dose 0.01-100 µM): 6.59 µM
- GI50 (RPMI-8226; [2]): 2.09 µM
- CC50 (RPMI-8226; [3]): > 100 µM
- %GI (RPMI-8226; one dose 10 µM): 100.21%
- GP (growth percent) (RPMI-8226; one dose 10 µM): −0.21
- TGI (A549/ATCC; 5-dose 0.01-100 µM): >100 µM
- GI50 (A549/ATCC; [2]): 4.11 µM
- LC50 (50% lethal concentration) (A549/ATCC; [2]): > 100 µM
- %GI (A549/ATCC; one dose 10 µM): 57.05%
- GP (growth percent) (A549/ATCC; one dose 10 µM): 42.95
- TGI (EKVX; 5-dose 0.01-100 µM): 38.4 µM
- GI50 (EKVX; [2]): 3.22 µM
- CC50 (EKVX; [3]): > 100 µM
- %GI (EKVX; one dose 10 µM): 38.75%
- GP (growth percent) (EKVX; one dose 10 µM): 61.25
- TGI (NCI-H322M; 5-dose 0.01-100 µM): 12.9 µM
- GI50 (NCI-H322M; [2]): 3.25 µM
- CC50 (NCI-H322M; [3]): 49.6 µM
- %GI (NCI-H322M; one dose 10 µM): 17.30%
- GP (growth percent) (NCI-H322M; one dose 10 µM): 82.70
- TGI (NCI-H460; 5-dose 0.01-100 µM): 9.95 µM
- GI50 (NCI-H460; [2]): 3.22 µM
- CC50 (NCI-H460; [3]): 50.7 µM
- %GI (NCI-H460; one dose 10 µM): 81.71%
- GP (growth percent) (NCI-H460; one dose 10 µM): 18.29
- TGI (NCI-H522; 5-dose 0.01-100 µM): 4.65 µM
- GI50 (NCI-H522; [2]): 1.78 µM
- CC50 (NCI-H522; [3]): 40.8 µM
- %GI (NCI-H522; one dose 10 µM): 92.68%
- GP (growth percent) (NCI-H522; one dose 10 µM): 7.32
- TGI (HCC-2998; 5-dose 0.01-100 µM): 3.82 µM
- GI50 (HCC-2998; [2]): 2.04 µM
- CC50 (HCC-2998; [3]): 71.2 µM
- %GI (HCC-2998; one dose 10 µM): −2.63%
- GP (growth percent) (HCC-2998; one dose 10 µM): 102.63
- TGI (KM12; 5-dose 0.01-100 µM): 5.59 µM
- GI50 (KM12; [2]): 2.33 µM
- CC50 (KM12; [3]): 54 µM
- %GI (KM12; one dose 10 µM): 58.62%
- GP (growth percent) (KM12; one dose 10 µM): 41.38
- TGI (SF-295; 5-dose 0.01-100 µM): 9.85 µM
- GI50 (SF-295; [2]): 2.89 µM
- CC50 (SF-295; [3]): 76.5 µM
- %GI (SF-295; one dose 10 µM): 16.58%
- GP (growth percent) (SF-295; one dose 10 µM): 83.42
- TGI (SNB-19; 5-dose 0.01-100 µM): 11.2 µM
- GI50 (SNB-19; [2]): 3.16 µM
- CC50 (SNB-19; [3]): 36.9 µM
- %GI (SNB-19; one dose 10 µM): 51.32%
- GP (growth percent) (SNB-19; one dose 10 µM): 48.68
- GI50 (U251; Homo sapiens, U-251, 5-dose 0.01-100 µM, read-out: GI50): 2.49 µM
- CC50 (U251; Homo sapiens, U-251, 5-dose 0.01-100 µM, read-out: LC50 (the source's name)): > 100 µM
- TGI (U251; 5-dose 0.01-100 µM): 6.86 µM
- %GI (U251; one dose 10 µM): 90.29%
- GP (growth percent) (U251; one dose 10 µM): 9.71
- TGI (LOX IMVI; 5-dose 0.01-100 µM): 3.71 µM
- GI50 (LOX IMVI; [2]): 1.77 µM
- %GI (LOX IMVI; one dose 10 µM): 90.89%
- GP (growth percent) (LOX IMVI; one dose 10 µM): 9.11
- TGI (M14; 5-dose 0.01-100 µM): 4.08 µM
- GI50 (M14; [2]): 1.94 µM
- CC50 (M14; [3]): 8.58 µM
- %GI (M14; one dose 10 µM): 70.52%
- GP (growth percent) (M14; one dose 10 µM): 29.48
- TGI (MDA-MB-435; 5-dose 0.01-100 µM): 7.06 µM
- GI50 (MDA-MB-435; Homo sapiens): 2.35 µM
- CC50 (MDA-MB-435; [3]): 33.4 µM
- %GI (MDA-MB-435; one dose 10 µM): 72.15%
- GP (growth percent) (MDA-MB-435; one dose 10 µM): 27.85
- TGI (SK-MEL-2; 5-dose 0.01-100 µM): 17.3 µM
- GI50 (SK-MEL-2; [2]): 3.15 µM
- CC50 (SK-MEL-2; [3]): > 100 µM
- %GI (SK-MEL-2; one dose 10 µM): 15.53%
- GP (growth percent) (SK-MEL-2; one dose 10 µM): 84.47
- TGI (SK-MEL-28; 5-dose 0.01-100 µM): 5.90 µM
- GI50 (SK-MEL-28; [2]): 2.19 µM
- CC50 (SK-MEL-28; [3]): 23.9 µM
- %GI (SK-MEL-28; one dose 10 µM): 42.01%
- GP (growth percent) (SK-MEL-28; one dose 10 µM): 57.99
- TGI (UACC-257; 5-dose 0.01-100 µM): 14.0 µM
- GI50 (UACC-257; [2]): 4.01 µM
- CC50 (UACC-257; [3]): 42 µM
- %GI (UACC-257; one dose 10 µM): 74.99%
- GP (growth percent) (UACC-257; one dose 10 µM): 25.01
- TGI (UACC-62; 5-dose 0.01-100 µM): 4.76 µM
- GI50 (UACC-62; [2]): 2.02 µM
- CC50 (UACC-62; [3]): 16.7 µM
- %GI (UACC-62; one dose 10 µM): 68.90%
- GP (growth percent) (UACC-62; one dose 10 µM): 31.10
- TGI (OVCAR-8; 5-dose 0.01-100 µM): >100 µM
- GI50 (OVCAR-8; [2]): 3.33 µM
- CC50 (OVCAR-8; [3]): > 100 µM
- %GI (OVCAR-8; one dose 10 µM): 99.57%
- GP (growth percent) (OVCAR-8; one dose 10 µM): 0.43
- TGI (NCI/ADR-RES; 5-dose 0.01-100 µM): >100 µM
- GI50 (NCI/ADR-RES; [2]): 3.51 µM
- CC50 (NCI/ADR-RES; [3]): > 100 µM
- %GI (NCI/ADR-RES; one dose 10 µM): 48.35%
- GP (growth percent) (NCI/ADR-RES; one dose 10 µM): 51.65
- TGI (786–0; 5-dose 0.01-100 µM): 7.52 µM
- GI50 (786–0; [2]): 2.42 µM
- CC50 (786–0; [3]): > 100 µM
- %GI (786–0; one dose 10 µM): 79.93%
- GP (growth percent) (786–0; one dose 10 µM): 20.07
- GI50 (A498; [2]): 5.81 µM
- CC50 (A498; [3]): 57.3 µM
- %GI (A498; one dose 10 µM): -8.03%
- GP (growth percent) (A498; one dose 10 µM): 108.03
- TGI (CAKI-1; 5-dose 0.01-100 µM): 12.7 µM
- GI50 (CAKI-1; [2]): 3.02 µM
- CC50 (CAKI-1; [3]): 44.1 µM
- %GI (CAKI-1; one dose 10 µM): 45.01%
- GP (growth percent) (CAKI-1; one dose 10 µM): 54.99
- TGI (RXF 393; 5-dose 0.01-100 µM): 3.73 µM
- GI50 (RXF 393; [2]): 1.98 µM
- %GI (RXF 393; one dose 10 µM): 77.34%
- GP (growth percent) (RXF 393; one dose 10 µM): 22.66
- TGI (DU-145; 5-dose 0.01-100 µM): 13.0 µM
- GI50 (DU-145; [2]): 3.67 µM
- CC50 (DU-145; [3]): 45.3 µM
- %GI (DU-145; one dose 10 µM): 52.45%
- GP (growth percent) (DU-145; one dose 10 µM): 47.55
- TGI (MDA-MB-231; 5-dose 0.01-100 µM): 9.62 µM
- GI50 (MDA-MB-231; Homo sapiens): 3.06 µM
- CC50 (MDA-MB-231; [3]): > 100 µM
- %GI (MDA-MB-231; one dose 10 µM): 45.21%
- GP (growth percent) (MDA-MB-231; one dose 10 µM): 54.79
- TGI (HS 578T; 5-dose 0.01-100 µM): 60.6 µM
- GI50 (HS 578T; [2]): 5.1 µM
- CC50 (HS 578T; [3]): > 100 µM
- %GI (HS 578T; one dose 10 µM): 48.11%
- GP (growth percent) (HS 578T; one dose 10 µM): 51.89
- TGI (BT-549; 5-dose 0.01-100 µM): 3.67 µM
- GI50 (BT-549; [2]): 1.96 µM
- CC50 (BT-549; [3]): 6.86 µM
- %GI (BT-549; one dose 10 µM): 81.03%
- GP (growth percent) (BT-549; one dose 10 µM): 18.97
- Mean % GI (Leukemia cell line panel; 10 µM): 91.31%
- Selectivity Ratio (MID a:MID b) (Leukemia cell line panel; 5-dose assay): 1.27
- GI50 (Leukemia cell line panel; 5-dose assay, read-out: GI50 values, range over the leukemia panel): 1.48 to 2.73 µM
- GI50 (Leukemia cell line panel; 5-dose assay, read-out: Sub Panel MID b (mean GI50 of panel)): 2.24 µM
- Mean % GI ([1]; 10 µM): 60.04%
- Selectivity Ratio (MID a:MID b) ([1]; 5-dose assay): 0.99
- GI50 ([1]; Homo sapiens, 5-dose assay, read-out: Sub Panel MID b (mean GI50 of panel)): 2.86 µM
